From patent US10907219B2, “Compositions and methods for controlling cellular function” (STC.UNM, priority 2014, dated 2021)

Experiments:
[1] = system: CHO cells transfected with ABA-inducible luciferase constructs; test: ABA-inducible luciferase assay; assay type: cell-based; conditions: 10 μM (mixture 10 μM each), 24 hours
[2] = ABA-Fe reactivity and selectivity towards Fe^2+ (HPLC); assay type: physicochemical; conditions: 37° C., one hour
Method: ABA-Fe reactivity and selectivity towards Fe^2+: 100 μM ABA-Fe with 1 mM Fe^2+ (in 50% HEPES/DMSO buffer, pH=7.4), and 100 μM ABA-Fe with 1 mM Fe^3+ (in 50% HEPES/DMSO buffer, pH=7.4) were incubated at 37° C. for one hour before HPLC detection. The percentages for molecule cleavage were quantified by the peak area of ABA out of the total peak area.
(§1) HPLC chromatograms were acquired using an ULTIMATE 3000 LC System (Thermo Fisher Scientific, Waltham, Mass.) with ACCLAIM 120 Å, C18, 3 μm analytical (4.6×100 mm) column (Thermo Fisher Scientific, Waltham, Mass.). Chromatographic conditions: eluent A: 0.1% v/v TFA in water; eluent B: 0.1% v/v TFA in acetonitrile. ABA in ethanol or ABA-HP in DMSO was eluted at a flow rate of 0.750 ml/min monitored at a wavelength of 260 nm. 0-12 min (linear): 95% A, 5% B to 5% A, 95% B; 12-15 min: 5% A, 95% B; 15-17 min (linear): 5% A, 95% B to 95% A, 5% B. Generation of ABA was quantified by the peak area of ABA out of the total peak area.

[3] = Chemical stability of ABA-Fe molecules (HPLC); assay type: physicochemical; conditions: 100 μM, 50% HEPES/DMSO pH 7.4, 37° C., one hour
Method: Chemical stability of ABA-Fe molecules: 100 μM ABA-Fe (in 50% HEPES/DMSO buffer, pH=7.4) was incubated at 37° C. for one hour before HPLC detection. The percentages for molecule cleavage were quantified by the peak area of ABA out of the total peak area.
as §1

[4] = system: HEK 293 EGFP reporter cells; test: Cell stability of ABA-Fe molecules; assay type: cell-based
Method: Mammalian Cell Culture: HEK 293 EGFP reporter cells were cultured in Dulbecco's modified Eagle's medium (DMEM, GIBCO, Life Technologies, Carlsbad, Calif.) with 10% Fetal Bovine Serum (FBS, GIBCO, Life Technologies, Carlsbad, Calif.), 1× […] (100× from GIBCO, Life Technologies, Carlsbad, Calif.), and 1× Penicillin/Streptomycin (Pen/Strep, 100× from GIBCO, Life Technologies, Carlsbad, Calif.). Cells were plated with the starting concentration of 200,000 cells per well in a 24-well plate (Greiner Bio-One GmbH; Frickenhausen, Germany) for a day, and then were treated with either 10 μM of ABA-Fe and 20 μM of DFO, 10 μM of ABA-Fe only, or 10 μM of ABA-Fe and 100 μM of Fe^2+ aqueous solution.
Imagines for green fluorescence were taken for living cells every two hours after adding in those molecules by microscopy illumination system (Axio Observer; Carl Zeiss AG, Oberkochen, Germany). Each type of the experiment was carried out as duplex.

## CC1=CC(=O)CC(C)(C)C1(O)/C=C/C(C)=C/C(=O)O (single isomer, unassigned) [2-trans isomer]
[1]
  induced luciferase expression (activity of ABA isomers): reduced activity

## CC1=CC(=O)CC(C)(C)[C@@]1(O)/C=C/C(C)=C\C(=O)ONC(C)c1ccccc1 (stereo partly drawn) [Compound 8]
[2]; 100 μM with 1 mM Fe^2+ or Fe^3+
  selectivity towards Fe^2+ vs Fe^3+: exhibits selectivity
[2]; 100 μM with 1 mM Fe^2+
  reactivity (cleavage) towards Fe^2+: exhibits Fe^2+ reactivity
[3]
  chemical stability: chemically stable
[4]
  stability in cells: stable in cells

## dimethoxynitrosobenzaldehyde [DMNB-derived photoproduct]
Transfected cells
  toxicity: does not cause observable toxicity
